Measurements published in patent US11554182B2, “Macrocyclic complexes of alpha-emitting radionuclides and their use in targeted radiotherapy of cancer” (CORNELL UNIVERSITY, priority 2017, dated 2023).

Assay: In vivo biodistribution of ^225Ac complexes after intravenous injection
Design: species or system C57BL/6 mice
Experimental: In Vivo Biodistribution of ^225Ac Complexes of Macropa and DOTA. All experiments were approved by the Institutional Animal Care Committee (IACC) of the University of British Columbia and were performed in accordance with the Canadian Council on Animal Care Guidelines. A total of 9 female C57BL/6 mice (6-8 weeks old, 20-25 g) were used for the biodistribution study of each radiometal complex, n=3 for each time point.
Macropa (100 μL of a 1 mg/mL solution in NH4OAc) was diluted with 387 μL of NH4OAc (1 M, pH 7), and an aliquot (203 μL) of ^225Ac(NO3)3 (˜157 kBq) was then added; the pH of this solution was adjusted to 6.5-7 by the addition of 1 M NaOH (210 μL, trace metal grade). After 5 min at ambient temperature, the reaction solution was analyzed by TLC (0.4 M pH 4 sodium citrate as the eluent), which confirmed >95% radiochemical yield. The reaction was allowed to proceed overnight, and the radiochemical yield was again confirmed to be >95% the following morning. At this time, mice were anesthetized by 2% isoflurane, and approximately 100 μL (10-15 kBq) of the [^225Ac(macropa)]^+ complex were injected into the tail vein of each mouse. After injection, mice were allowed to recover and roam freely in their cages, and were euthanized by CO2 inhalation at 15 min, 1 h, or 5 h (n=3 at each time point) post-injection. Blood was collected by cardiac puncture and placed into an appropriate test tube for scintillation counting. Tissues collected included heart, liver, kidneys, lungs, small intestine, large intestine, brain, bladder, spleen, stomach, pancreas, bone, thyroid, tail, urine, and feces. Tissues were weighed and then counted with a calibrated gamma counter (Packard, Cobra II model 5002) using three energy windows: 60-120 keV (window A), 180-260 keV (window B), and 400-480 keV (window C). Counting was performed both immediately after sacrifice and after 7 days; counts were decay corrected from the time of injection and then converted to the percentage of injected dose (% ID) per gram of tissue (% ID/g). No differences were noted between the data; therefore, the biodistributions are reported using the data acquired immediately using window A.
The biodistribution studies of [^225Ac(DOTA)]^− and ^225Ac(NO3)3 were carried out as described above for [^225Ac(macropa)]^+, with the following modifications. [^225Ac(DOTA)]^− was prepared by adding ^225Ac(NO3)3 (338 μL, 1.1 MBq) to a solution of DOTA (100 μg, 20 mg/mL in H2O) in NH4OAc (467 μL, 0.15 M, pH 7). The pH of the solution was adjusted to 7 using NH4OAc (150 μL, 1 M, pH 7) and the solution was heated at 85° C. for 45 min. RCY>99% was confirmed by TLC as described above. [^225Ac(DOTA)]^− was diluted with saline to a final concentration of 0.05 MBq/100 μL, and 100 μL were injected into each mouse. ^225Ac(NO3)3 (˜58 μL, 0.4 MBq) was diluted and injected in the same manner as [^225Ac(DOTA)]^−. One mouse that was to be euthanized at the 5 h time point in the [^225Ac(DOTA)]^− study died shortly after injection. In the same manner, one mouse that was to be euthanized at the 1 h time point in the ^225Ac(NO3)3 study died.
The in vivo stability [^225Ac(macropa)]^+ was examined by comparing its biodistribution to those of ^225Ac(NO3)3 and [^225Ac(DOTA)]^−. C57BL/6 mice were injected via tail vein with 10-50 kBq of each radiometal complex and were sacrificed after 15 min, 1 h, or 5 h. The amount of ^225Ac retained in each organ was quantified by gamma counting and reported as the percent of injected dose per gram of tissue (% ID/g). The results of these studies are compiled in Tables 1-3. Inadequate stability of an ^225Ac complex leading to the loss of radioisotope in vivo is manifested by the accumulation of ^225Ac in the liver, spleen, and bone of mice.^[11,12,32] […] The biodistribution profile of [^225Ac(macropa)]^+ (FIG. 3B) differs markedly from that of ^225Ac(NO3)3. […]

[1] = 15 min after i.v. injection, energy window A (60-120 keV)
[2] = 15 min after i.v. injection, energy window B (180-260 keV)
[3] = 15 min after i.v. injection, energy window C (400-480 keV)
[4] = 1 h after i.v. injection, energy window A (60-120 keV)
[5] = 1 h after i.v. injection, energy window B (180-260 keV)

SMILES: O=[N+]([O-])[O-].O=[N+]([O-])[O-].O=[N+]([O-])[O-].[225Ac] [^225Ac(NO3)3]
- % ID/g in bladder [1]: 1.477 % ID/g
- % ID/g in blood [1]: 40.966 % ID/g
- % ID/g in bone (femur + joint) [1]: 2.764 % ID/g
- % ID/g in brain [1]: 0.614 % ID/g
- % ID/g in feces [1]: 0.240 % ID/g
- % ID/g in heart [1]: 8.557 % ID/g
- % ID/g in kidneys [1]: 10.468 % ID/g
- % ID/g in large intestines [1]: 1.116 % ID/g
- % ID/g in liver [1]: 22.899 % ID/g
- % ID/g in lungs [1]: 12.757 % ID/g
- % ID/g in pancreas [1]: 2.366 % ID/g
- % ID/g in small intestines [1]: 2.002 % ID/g
- % ID/g in spleen [1]: 22.733 % ID/g
- % ID/g in stomach [1]: 2.348 % ID/g
- % ID/g in tail [1]: 7.459 % ID/g
- % ID/g in thyroids [1]: 4.391 % ID/g
- % ID/g in urine [1]: 5.527 % ID/g
- % ID/g in bladder [2]: 1.6996 % ID/g
- % ID/g in blood [2]: 41.5628 % ID/g
- % ID/g in bone (femur + joint) [2]: 2.7487 % ID/g
- % ID/g in brain [2]: 0.6536 % ID/g
- % ID/g in feces [2]: 0.3857 % ID/g
- % ID/g in heart [2]: 8.3605 % ID/g
- % ID/g in kidneys [2]: 9.6424 % ID/g
- % ID/g in large intestines [2]: 1.1570 % ID/g
- % ID/g in liver [2]: 23.6091 % ID/g
- % ID/g in lungs [2]: 12.9714 % ID/g
- % ID/g in pancreas [2]: 2.2821 % ID/g
- % ID/g in small intestines [2]: 1.9641 % ID/g
- % ID/g in spleen [2]: 24.0497 % ID/g
- % ID/g in stomach [2]: 2.3704 % ID/g
- % ID/g in tail [2]: 8.0722 % ID/g
- % ID/g in thyroids [2]: 9.6295 % ID/g
- % ID/g in urine [2]: 5.0951 % ID/g
- % ID/g in bladder [3]: 1.9351 % ID/g
- % ID/g in blood [3]: 42.3521 % ID/g
- % ID/g in bone (femur + joint) [3]: 3.4560 % ID/g
- % ID/g in brain [3]: 0.6755 % ID/g
- % ID/g in feces [3]: 0.4896 % ID/g
- % ID/g in heart [3]: 9.0992 % ID/g
- % ID/g in kidneys [3]: 14.2266 % ID/g
- % ID/g in large intestines [3]: 1.5716 % ID/g
- % ID/g in liver [3]: 24.1147 % ID/g
- % ID/g in lungs [3]: 14.4797 % ID/g
- % ID/g in pancreas [3]: 2.4405 % ID/g
- % ID/g in small intestines [3]: 2.0956 % ID/g
- % ID/g in spleen [3]: 25.4263 % ID/g
- % ID/g in stomach [3]: 2.4232 % ID/g
- % ID/g in tail [3]: 9.1381 % ID/g
- % ID/g in thyroids [3]: 3.5934 % ID/g
- % ID/g in urine [3]: 19.8282 % ID/g
- % ID/g in bladder [4]: 0.9047 % ID/g
- % ID/g in blood [4]: 20.8234 % ID/g
- % ID/g in bone (femur + joint) [4]: 2.4707 % ID/g
- % ID/g in brain [4]: 0.2995 % ID/g
- % ID/g in feces [4]: 0.2189 % ID/g
- % ID/g in heart [4]: 4.4261 % ID/g
- % ID/g in kidneys [4]: 7.2170 % ID/g
- % ID/g in large intestines [4]: 0.6035 % ID/g
- % ID/g in liver [4]: 39.8269 % ID/g
- % ID/g in lungs [4]: 8.2412 % ID/g
- % ID/g in pancreas [4]: 2.1771 % ID/g
- % ID/g in small intestines [4]: 1.5594 % ID/g
- % ID/g in spleen [4]: 34.8831 % ID/g
- % ID/g in stomach [4]: 1.6211 % ID/g
- % ID/g in tail [4]: 5.7939 % ID/g
- % ID/g in thyroids [4]: 2.5988 % ID/g
- % ID/g in urine [4]: 4.5194 % ID/g
- % ID/g in bladder [5]: 0.8092 % ID/g
- % ID/g in blood [5]: 21.4460 % ID/g
- % ID/g in bone (femur + joint) [5]: 2.7705 % ID/g
- % ID/g in brain [5]: 0.3247 % ID/g
- % ID/g in feces [5]: 0.3300 % ID/g
- % ID/g in heart [5]: 4.5832 % ID/g
- % ID/g in kidneys [5]: 6.8770 % ID/g
- % ID/g in large intestines [5]: 0.5629 % ID/g
- % ID/g in liver [5]: 41.0995 % ID/g
